From US4820695A, “C-20-dihydro-deoxy-(cyclic amino)-derivatives of macrolide antibiotics” (priority 1987, dated 1989)
In brackets after ≈: the same amount, converted by molar mass. Where two headings read alike, the source gives them in different places.

How the values were obtained:
[1] = tested on: Pasteurella multocida; assay: Pasteurella infection in one-day-old chicks, subcutaneous administration (Table XII); type: in vivo; details: Administered subcutaneously, 30 mg/kg × 2, 1 and 4 hours post-challenge
Method: (§1) Many of the C-20 modified derivatives of this invention have also shown in vivo antibacterial activity against infections induced by gram-negative bacteria. Tables XII and XIII summarize the results of tests in which illustrative compounds were evaluated against a Pasteurella infection in one-day-old chicks. The compounds were administered parenterally or orally after challenge of the chicks with Pasteurella multocida (0.1 ml of a 10^-4 dilution of a twenty-hour tryptose broth culture of an avian P. multocida given subcutaneously). In these tests, unless indicated otherwise, all non-medicated infected chicks died within 24 hours of Pasteurella challenge. In the tests summarized in Table XII, the compounds were administered by subcutaneous injection at a dosage of 30 mg/kg, 1 and 4 hours post-challenge of the chicks with P. multocida. In the tests summarized in Table XIII the compounds were administered in medicated drinking water (at a level of 2 g/gal) available from 4 to 20 hours prior to challenge of the chicks with P. multocida and during the 3 -day test period.
^a Administered subcutaneously; 30 mg/kg × 2

[2] = tested on: Pasteurella multocida; assay: Pasteurella infection in one-day-old chicks, medicated drinking water (Table XIII); type: in vivo; details: Administered in the available drinking water at 2 g/gal
Method: as §1
^a Administered in the available drinking water at a concentration of […]

[3] = tested on: Staphyloccus aureus X1.1; assay: MIC, standard agar-dilution assay (Table IX); type: cell-based, Staphylococcus aureus; details: Staphylococcus aureus, read-out: MIC
[4] = tested on: Staphylococcus aureus V41; assay: MIC, standard agar-dilution assay (Table IX); type: cell-based; details: Staphylococcus aureus V41, Penicillin-resistant strain, read-out: MIC
[5] = tested on: Staphylococcus aureus X400; assay: MIC, standard agar-dilution assay (Table IX); type: cell-based; details: Staphylococcus aureus X400, Methicillin-resistant strain, read-out: MIC
[6] = tested on: Staphylococcus aureus S13E; assay: MIC, standard agar-dilution assay (Table IX); type: cell-based; details: Staphylococcus aureus, S13E
[7] = tested on: Staphylococcus epidermidis EPI1; assay: MIC, standard agar-dilution assay (Table IX); type: cell-based
[8] = tested on: Staphylococcus epidermidis 222; assay: MIC, standard agar-dilution assay (Table IX); type: cell-based; details: read-out: MIC
[9] = tested on: Streptococcus pyogenes C203; assay: MIC, standard agar-dilution assay (Table IX); type: cell-based; details: read-out: MIC
[10] = tested on: Streptococcus pneumoniae Park I; assay: MIC, standard agar-dilution assay (Table IX); type: cell-based
[11] = tested on: Streptococcus Group D X66; assay: MIC, standard agar-dilution assay (Table IX); type: cell-based; details: read-out: MIC
[12] = tested on: Streptococcus Group D 2041; assay: MIC, standard agar-dilution assay (Table IX); type: cell-based; details: GROUPD2041, read-out: MIC
[13] = tested on: Haemophilus influenzae C.L.; assay: MIC, standard agar-dilution assay (Table IX); type: cell-based; details: Ampicillin-sensitive strain, read-out: MIC
[14] = tested on: Haemophilus influenzae 76; assay: MIC, standard agar-dilution assay (Table IX); type: cell-based; details: Haemophilus influenzae 76, Ampicillin-resistant strain, read-out: MIC
[15] = tested on: Escherichia coli N10; assay: MIC, standard agar-dilution assay (Table IX); type: cell-based; details: read-out: MIC
[16] = tested on: Escherichia coli EC14; assay: MIC, standard agar-dilution assay (Table IX); type: cell-based; details: read-out: MIC
[17] = tested on: Escherichia coli TEM; assay: MIC, standard agar-dilution assay (Table IX); type: cell-based; details: read-out: MIC
[18] = tested on: Klebsiella X26; assay: MIC, standard agar-dilution assay (Table IX); type: cell-based; details: read-out: MIC
[19] = tested on: Mycoplasma gallisepticum 29C; assay: MIC, broth-dilution microtiter test (Table X); type: cell-based; details: Mycoplasmoides gallisepticum, read-out: MIC
Source text: (§2) The MIC's in Table X were obtained using conventional broth-dilution microtiter tests.

[20] = tested on: Mycoplasma hyopneumoniae S5972; assay: MIC, broth-dilution microtiter test (Table X); type: cell-based; details: Mesomycoplasma hyopneumoniae, read-out: MIC
Source text: as §2

[21] = tested on: Mycoplasma hyorhinis 29E; assay: MIC, broth-dilution microtiter test (Table X); type: cell-based; details: read-out: MIC
Source text: as §2

[22] = tested on: Mycoplasma synoviae 40A; assay: MIC, broth-dilution microtiter test (Table X); type: cell-based; details: Mycoplasmopsis synoviae, read-out: MIC
Source text: as §2

[23] = tested on: Pasteurella hemolytica 22C; assay: MIC, broth-dilution microtiter test (Table X); type: cell-based; details: read-out: MIC
Source text: as §2

[24] = tested on: Pasteurella multocida 17E; assay: MIC, broth-dilution microtiter test (Table X); type: cell-based; details: Bovine isolate, read-out: MIC
Source text: as §2

[25] = tested on: Pasteurella multocida 60A; assay: MIC, broth-dilution microtiter test (Table X); type: cell-based; details: Avian isolate, read-out: MIC
Source text: as §2

[26] = tested on: Staphylococcus aureus; assay: MIC, broth-dilution microtiter test (Table X); type: cell-based; details: read-out: MIC
Source text: as §2

[27] = tested on: Streptococcus sp. 19F; assay: MIC, broth-dilution microtiter test (Table X); type: cell-based; details: read-out: MIC
Source text: as §2

[28] = tested on: Streptococcus pyogenes C203; assay: ED50 in mice experimentally infected with S. pyogenes C203 (Table XI); type: in vivo; details: Streptococcus pyogenes, doses given 1 and 4 hours postinfection, read-out: ED50
Method: The C-20 modified derivatives of this invention have shown in vivo antimicrobial activity against experimentally-induced infections in laboratory animals. When two doses of test compound were administered to mice experimentally infected with S. pyogenes C203, the activity observed was measured as an ED50 value [effective dose in mg/kg to protect 50% of the test animals: see Warren Wick, et al., J. Bacteriol. 81, 233-235 (1961)].
^a mg/kg × 2; doses given 1 and 4 hours postinfection

[29] = Titratable groups in 66% aqueous DMF (Tables XIV-XVI); type: physicochemical
Source text: ^c Run in 66% aqueous DMF
^d Run in 66% aqueous DMF

[30] = Staphylococcus epidermidis EPI1, agar-dilution, read-out: MIC
[31] = Streptococcus pneumoniae Park I, agar-dilution, read-out: MIC
[32] = Titratable groups (first value)

Row | Structure (SMILES) | Number of Deaths/Number Treated [1] | Number of Deaths/Number Treated [2] | MIC [3] | MIC [4] | MIC [5] | MIC [6] | MIC [8] | MIC [11] | MIC [12] | MIC [13] | MIC [14] | MIC [15] | MIC [16] | MIC [17] | MIC [18] | MIC [19] | MIC [20] | MIC [21] | MIC [22] | MIC [23] | also measured
1 | CCC1OC(=O)CC(O)C(C)C(OC2OC(C)C(O)C(N(C)C)C2O)C(CCN2CC3CCCCC3C2)CC(C)C(=O)C=CC(C)=CC1COC1OC(C)C(O)C(OC)C1OC (stereo not shown) [Compound D45] | 0/10 | 1/10 | – | – | – | – | – | – | – | – | – | – | – | – | – | – | – | – | – | – | –
2 | CCC1OC(=O)CC(O)C(C)C(OC2OC(C)C(O)C(N(C)C)C2O)C(CCN2CCc3ccccc3C2)CC(C)C(=O)C=CC(C)=CC1COC1OC(C)C(O)C(OC)C1OC (stereo not shown) [Compound D12, 20-DH-DO-20-(1,2,3,4-Tetrahydroisoquinolin-2-yl)desmycosin] | 9/10 | 8/10 | 0.5 µg/mL (≈ 0.562 µM) | 0.5 µg/mL (≈ 0.562 µM) | 0.5 µg/mL (≈ 0.562 µM) | 0.5 µg/mL (≈ 0.562 µM) | 0.25 µg/mL (≈ 0.281 µM) | 4 µg/mL (≈ 4.5 µM) | 8 µg/mL (≈ 9 µM) | 16 µg/mL (≈ 18 µM) | 8 µg/mL (≈ 9 µM) | > 128 µg/mL | 128 µg/mL (≈ 144 µM) | 64 µg/mL (≈ 72 µM) | 32 µg/mL (≈ 36 µM) | ≤ 0.048 µg/mL | 3.12 µg/mL (≈ 3.51 µM) | 12.5 µg/mL (≈ 14.1 µM) | 0.39 µg/mL (≈ 0.439 µM) | 3.12 µg/mL (≈ 3.51 µM) | MIC [7, 30]: 0.5 µg/mL (≈ 0.562 µM); MIC [9]: 0.5 µg/mL (≈ 0.562 µM); MIC [10, 31]: 1 µg/mL (≈ 1.12 µM); MIC [24]: 6.25 µg/mL (≈ 7.03 µM); MIC [25]: 12.5 µg/mL (≈ 14.1 µM); MIC [26]: 1.56 µg/mL (≈ 1.75 µM); MIC [27]: 3.12 µg/mL (≈ 3.51 µM); ED50 ([28]; C203, Oral): < 6.3 mg/kg; ED50 ([28]; C203, sc, Subcutaneous): 2 mg/kg
3 | CCC1OC(=O)CC(O)C(C)C(OC2OC(C)C(O)C(N(C)C)C2O)C(CCN2CC3CCC(CC3)C2)CC(C)C(=O)C=CC(C)=CC1COC1OC(C)C(O)C(OC)C1OC (stereo not shown) [Compound D14, 20-DH-DO-20-[3-azabicyclo[3.2.2]nonan-3-yl]desmycosin] | 2/10 | 0/10 | 0.25 µg/mL (≈ 0.284 µM) | 0.25 µg/mL (≈ 0.284 µM) | 0.5 µg/mL (≈ 0.567 µM) | 0.25 µg/mL (≈ 0.284 µM) | 0.12 µg/mL (≈ 0.136 µM) | 4 µg/mL (≈ 4.54 µM) | 4 µg/mL (≈ 4.54 µM) | 4 µg/mL (≈ 4.54 µM) | 8 µg/mL (≈ 9.08 µM) | 32 µg/mL (≈ 36.3 µM) | 32 µg/mL (≈ 36.3 µM) | 16 µg/mL (≈ 18.2 µM) | 8 µg/mL (≈ 9.08 µM) | 1.56 µg/mL (≈ 1.77 µM) | 0.78 µg/mL (≈ 0.885 µM) | 50 µg/mL (≈ 56.7 µM) | 0.39 µg/mL (≈ 0.443 µM) | 1.56 µg/mL (≈ 1.77 µM) | MIC ([7]; Staphylococcus epidermidis, EPI1): 0.5 µg/mL (≈ 0.567 µM); MIC ([10]; Streptococcus pneumoniae): 0.5 µg/mL (≈ 0.567 µM); MIC [24]: 3.12 µg/mL (≈ 3.54 µM); MIC [25]: 3.12 µg/mL (≈ 3.54 µM); MIC [26]: 0.78 µg/mL (≈ 0.885 µM); MIC [27]: 1.56 µg/mL (≈ 1.77 µM); ED50 ([28]; C203, Oral): 50 mg/kg; ED50 ([28]; C203, sc, Subcutaneous): 1 mg/kg; pKa ([29]; Titratable groups): 9.2; pKa [29, 32]: 7.9
4 | CCC1OC(=O)CC(O)C(C)C(OC2OC(C)C(O)C(N(C)C)C2O)C(CCN2CCCC3CCCCC32)CC(C)C(=O)C=CC(C)=CC1COC1OC(C)C(O)C(OC)C1OC (stereo not shown) [Compound D20, 20-DH-DO-20-(decahydroquinolin-1-yl)desmycosin] | – | 0/10 | 0.5 µg/mL (≈ 0.559 µM) | 0.5 µg/mL (≈ 0.559 µM) | 0.5 µg/mL (≈ 0.559 µM) | 0.5 µg/mL (≈ 0.559 µM) | 0.25 µg/mL (≈ 0.279 µM) | 8 µg/mL (≈ 8.94 µM) | 8 µg/mL (≈ 8.94 µM) | 16 µg/mL (≈ 17.9 µM) | 16 µg/mL (≈ 17.9 µM) | 128 µg/mL (≈ 143 µM) | 128 µg/mL (≈ 143 µM) | 32 µg/mL (≈ 35.7 µM) | 16 µg/mL (≈ 17.9 µM) | 0.78 µg/mL (≈ 0.871 µM) | 0.78 µg/mL (≈ 0.871 µM) | 50 µg/mL (≈ 55.9 µM) | 0.195 µg/mL (≈ 0.218 µM) | 3.12 µg/mL (≈ 3.49 µM) | MIC [7, 30]: 0.5 µg/mL (≈ 0.559 µM); MIC [9]: 0.25 µg/mL (≈ 0.279 µM); MIC [10, 31]: 0.12 µg/mL (≈ 0.134 µM); MIC [24]: 3.12 µg/mL (≈ 3.49 µM); MIC [25]: 3.12 µg/mL (≈ 3.49 µM); MIC [26]: 0.78 µg/mL (≈ 0.871 µM); MIC [27]: 3.12 µg/mL (≈ 3.49 µM); ED50 ([28]; C203, Oral): 34 mg/kg; ED50 ([28]; C203, sc, Subcutaneous): 1.7 mg/kg; pKa ([29]; Titratable groups): 9.4; pKa [29, 32]: 7.9
